The source of these data is article PMC5728534 (PLoS ONE, 2017).

Changes are numbered by the printed parent chain. “Also recorded” adds a separate entry of the source.

One data set has as its target T1, OCT1*1A (Met408Val) (Homo sapiens, UniProt O15245, L160F/M408V).
T1 sequence (O15245 1-554 L160F/M408V): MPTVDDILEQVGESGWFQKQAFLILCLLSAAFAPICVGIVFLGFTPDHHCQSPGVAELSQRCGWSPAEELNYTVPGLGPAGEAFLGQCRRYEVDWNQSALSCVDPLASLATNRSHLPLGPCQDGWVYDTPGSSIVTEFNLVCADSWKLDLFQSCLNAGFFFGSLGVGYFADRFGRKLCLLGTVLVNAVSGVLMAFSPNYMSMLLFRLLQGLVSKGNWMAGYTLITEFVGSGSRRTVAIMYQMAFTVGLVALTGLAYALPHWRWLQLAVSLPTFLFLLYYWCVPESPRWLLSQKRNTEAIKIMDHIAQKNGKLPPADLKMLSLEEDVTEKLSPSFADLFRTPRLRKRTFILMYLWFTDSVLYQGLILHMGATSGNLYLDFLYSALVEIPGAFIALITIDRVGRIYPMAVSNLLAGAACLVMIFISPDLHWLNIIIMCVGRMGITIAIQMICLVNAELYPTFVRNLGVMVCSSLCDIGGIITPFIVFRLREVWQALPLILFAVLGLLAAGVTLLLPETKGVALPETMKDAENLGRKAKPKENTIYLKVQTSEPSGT
Conditions: 1 and 10 μM ranitidine, 2 min.

Data set [1] deals with T2, OCT1*1D (Pro341Leu/Met408Val) (Homo sapiens, UniProt O15245, L160F/M408V/P341L).
T2 sequence (O15245 1-554 L160F/P341L/M408V): T1 sequence (O15245 1-554 L160F/M408V) with P341L
Conditions: 1 and 10 μM ranitidine, 2 min.
Description: (§1) HEK293 or CHO cells overexpressing the human OCT1 alleles *1A (characterized by the amino acid substitution Met408Val), *1B, *1C (Phe160Leu), *1D (Pro341Leu/Met408Val), *2 (Met420del), *3 (Arg61Cys), *4 (Gly401Ser), *5 (Gly465Arg/Met420del), *6 (Cys88Arg/Met420del), *7 (Ser14Phe), *8A (Arg488Met), *8B (Arg488Met/Met408Val), *9 (Pro117Leu), *10 (Ser189Leu), *11 (Ile449Thr), *12 (Ser29Leu), or *13 (Thr245Met), the human OCT2 reference and variant alleles (Ala270Ser), human OCT3, and the control cells (transfected with the empty pcDNA5 vector) were generated by targeted chromosomal integration using the Flp-In™ System (Life Technologies, Darmstadt, Germany).
(§2) Six hundred thousand HEK293 or CHO cells were plated per well in 12-well plates (pre-coated with poly-D-lysine) and were grown for 48 hours to reach confluence. Cells were kept at 37°C and 5% CO2 in DMEM (HEK293) or RPMI (CHO), supplemented with 10% FCS, 100 U/ml penicillin, and 100 μg/ml streptomycin. Uptake experiments were performed at pH 7.4 using HBSS supplemented with 10 mM HEPES buffer (herein referred to as HBSS+). […]
(§3) For all transport measurements, the intracellular amount of substrate was normalized to the total amount of protein of the sample as measured using the bicinchoninic acid assay [49].
(§4) For quantification of intracellular substrates, the cell debris were removed by centrifugation at 17,000 x g for 10 min. […]

Details of data set [2]: method as in ref 56 = [56]; 56 Pharma ® A. Fachinformation Ranitidin 150–1 A Pharma ® , Ranitidin 300–1 A Pharma ® : Rote Liste ®; 2013 [updated June 2013; cited 2016 21.10.2016]. Conditions: cited from earlier work.
The target of another data set is T3, OCT1*12 (Ser29Leu) (Homo sapiens, UniProt O15245, L160F/S29L).
T3 construct: expressed in transfected cells; host or cells: HEK293 T-REx (Flp-In)
T3 sequence (O15245 1-554 S29L/L160F): T1 sequence (O15245 1-554 L160F/M408V) with S29L, V408M
Description: Ranitidine uptake in HEK293 cells overexpressing OCT1*12. The format is in vitro ADME. As to conditions: 1 μM and 10 μM ranitidine, 2 min.

The conditions of data set [3]: physiological pH of 7.4; no reference given; cited from earlier work.
A further data set deals with T4, OCT2 Ser270 (Ala270Ser) (Homo sapiens, UniProt O15244).
T4 sequence (O15244 1-555): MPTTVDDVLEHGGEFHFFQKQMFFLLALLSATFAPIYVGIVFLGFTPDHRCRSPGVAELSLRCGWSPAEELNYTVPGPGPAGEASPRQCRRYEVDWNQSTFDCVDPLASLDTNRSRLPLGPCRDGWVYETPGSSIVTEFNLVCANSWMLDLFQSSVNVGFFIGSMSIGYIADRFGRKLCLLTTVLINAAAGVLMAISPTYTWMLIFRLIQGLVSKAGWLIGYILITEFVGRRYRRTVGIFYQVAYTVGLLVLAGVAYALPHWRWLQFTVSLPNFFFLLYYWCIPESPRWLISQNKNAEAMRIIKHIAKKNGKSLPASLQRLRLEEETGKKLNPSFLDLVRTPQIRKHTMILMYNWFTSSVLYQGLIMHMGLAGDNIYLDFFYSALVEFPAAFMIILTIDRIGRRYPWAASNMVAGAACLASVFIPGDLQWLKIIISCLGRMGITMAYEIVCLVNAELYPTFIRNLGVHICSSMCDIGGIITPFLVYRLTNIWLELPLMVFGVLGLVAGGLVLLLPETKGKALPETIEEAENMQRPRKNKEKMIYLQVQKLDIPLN
The experiment in a line: Ranitidine uptake in HEK293 cells overexpressing OCT2 variant (Ser270). As to conditions: 1 μM ranitidine, 2 min, not significant. The format is in vitro ADME.

Description for OCT1*12 (Ser29Leu): as §1, §2, §3, §4
Description for OCT1*1A (Met408Val): as §1, §2, §3, §4
Description for OCT2 Ser270 (Ala270Ser): as §1, §2, §3, §4

Regarding `CNC(=C[N+](=O)[O-])NCCSCc1ccc(CN(C)C)o1` [ranitidine, Ranitidine], the “uptake of ranitidine compared to the reference allele” value (at OCT1*1A (Met408Val); in data set [1]) was “no significant difference” in each case. Also, the “dosages exceeding the single dose not associated with a higher prevalence of adverse reactions” value in data set [2] is recorded as “more than 20 fold”. Also, the ranitidine transport activity entry on OCT1*12 (Ser29Leu) is “completely lacked ranitidine uptake; also recorded: complete lack of ranitidine transport activity”. Moreover, in data set [3], the “ranitidine molecules that are positively charged organic cations” value was 86%. Also, at OCT2 Ser270 (Ala270Ser), the “reduction of ranitidine uptake, Ser270 allele in comparison to the Ala270 allele” value stood at 9%.
